According to EP0923530B1, “INHIBITION OF MATRIX METALLOPROTEASES BY SUBSTITUTED BIARYL OXOBUTYRIC ACIDS” (Bayer Corporation, priority 1996, dated 1997):

Experiments:
[1] = target: T1, MMP-3 (Homo sapiens, UniProt P08254); test: P218 quenched fluorescence assay (MMP Microfluorometric Profiling Assay), MMP-3; type: biochemical; conditions: 6 µM P218 substrate, 25 min at 37°C, pH 6.5; read-out: MMP-3 Fluorogenic IC50
T1 construct: made in house; host or cells: CHO cells
Text: (§1) The P218 quenched fluorescence assay (Microfluorometric Profiling Assay) is a modification of that originally described by Knight, et al.. FEBS Lett. 296, 263 (1992) for a related substance and a variety of matrix metalloproteinases (MMPs) in cuvettes. The assay was run with each invention compound and the three MMPs, MMP-3, MMP-9 and MMP-2, analyzed in parallel, adapted as follows for a 96-well microtiter plate and a Hamilton AT® workstation. P218 Fluorogenic Substrate: P218 is a synthetic substrate containing a 4-acetyl-7-methoxycoumarin ( MCA) group in the N-terminal position and a 3-[2, 4-dinitrophenyl]-L-2,3-diaminopropionyl (DPA) group internally. This is a modification of a peptide reported by Knight (1992) that was used as a substrate for matrix metalloproteinases. Once the P218 peptide is cleaved (putative clip site at the Ala-Leu bond), the fluorescence of the MCA group can be detected on a fluorometer with excitation at 328 nm and emission at 393 nm. P218 is currently being produced BACHEM exclusively for Bayer. P218 has the structure: [formula]
Recombinant Human CHO Pro-MMP-3: Human CHO pro-stromelysin-257 (pro-MMP-3) was expressed and purified as described by Housley, et al.. J. Biol. Chem. 268, 4481 (1993).
Activation of Pro-MMP-3: Pro-MMP-3 at 1.72 µM (100 µg/mL) in 5 mM Tris at pH 7.5, 5 mM CaCl2, 25 mM NaCl, and 0.005% Brij-35 (MMP-3 activation buffer) was activated by incubation with TPCK (N-tosyl-(L)-phenylalanine chloromethyl ketone) trypsin (1:100 w/w to pro-MMP-3) at 25 °C for 30 min. The reaction was stopped by addition of soybean trypsin inhibitor (SBTI; 5:1 w/w to trypsin concentration). This activation protocol results in the formation of 45 kDa active MMP-3, which still contains the C-terminal portion of the enzyme.
(§2) Hamiltion Microlab AT Plus: The MMP-Profiling Assay is performed robotically on a Hamilton MicroLab AT Plus®. […]
(§3) Millipore Cytofluor II. Following incubation, the plate was read on a Cytofluor II fluorometric plate reader with excitation at 340 nm and emission at 395 nm with the gain set at 80. […]

[2] = target: T2, MMP-9 (Homo sapiens, UniProt P14780); test: P218 quenched fluorescence assay (MMP Microfluorometric Profiling Assay), MMP-9; type: biochemical; conditions: 6 µM P218 substrate, 25 min at 37°C, pH 6.5; read-out: MMP-9 Fluorogenic IC50
T2 construct: made in house
Text: as §1
Recombinant Human Pro-MMP-9: Human pro-gelatinase B (pro-MMP-9) derived from U937 cDNA as described by Wilhelm, et al. J. Biol. Chem. 264, 17213 (1989) was expressed as the full-length form using a baculovirus protein expression system. The pro-enzyme was purified using methods previously described by Hibbs, et al. J. Biol. Chem. 260, 2493 (1984).
Activation of Pro-MMP-9: […] 20 µg/mL in 50 mM Tris at pH 7.4, 10mM CaCl2, 150 mM NaCl, and 0.005% Brij-35 (MMP-9 activation buffer) was activated by incubation with 0.5 mM p-aminophenylmercuric acetate (APMA) for 3.5 h at 37°C. The enzyme was dialyzed against the same buffer to revmove the APMA.
as §2, §3

[3] = target: MMP-2 (Homo sapiens, UniProt P08253); test: biochemical
Chain of MMP-2 (P08253 110-660): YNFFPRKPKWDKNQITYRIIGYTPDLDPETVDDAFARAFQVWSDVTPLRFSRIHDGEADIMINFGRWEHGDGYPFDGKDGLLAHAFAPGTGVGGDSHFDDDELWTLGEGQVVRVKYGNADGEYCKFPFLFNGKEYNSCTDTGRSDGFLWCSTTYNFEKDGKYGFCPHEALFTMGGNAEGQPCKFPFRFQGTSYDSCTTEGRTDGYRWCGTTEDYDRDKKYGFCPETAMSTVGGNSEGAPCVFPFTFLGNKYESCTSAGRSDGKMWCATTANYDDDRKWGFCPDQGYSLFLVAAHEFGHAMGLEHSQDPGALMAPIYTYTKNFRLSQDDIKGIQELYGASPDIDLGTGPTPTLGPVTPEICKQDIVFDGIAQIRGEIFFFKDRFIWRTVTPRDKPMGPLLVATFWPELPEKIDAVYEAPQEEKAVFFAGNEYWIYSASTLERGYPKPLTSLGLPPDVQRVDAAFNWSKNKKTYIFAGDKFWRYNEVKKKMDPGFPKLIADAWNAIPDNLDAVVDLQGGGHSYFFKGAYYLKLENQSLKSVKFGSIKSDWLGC

T1 sequence (P08254 100-477): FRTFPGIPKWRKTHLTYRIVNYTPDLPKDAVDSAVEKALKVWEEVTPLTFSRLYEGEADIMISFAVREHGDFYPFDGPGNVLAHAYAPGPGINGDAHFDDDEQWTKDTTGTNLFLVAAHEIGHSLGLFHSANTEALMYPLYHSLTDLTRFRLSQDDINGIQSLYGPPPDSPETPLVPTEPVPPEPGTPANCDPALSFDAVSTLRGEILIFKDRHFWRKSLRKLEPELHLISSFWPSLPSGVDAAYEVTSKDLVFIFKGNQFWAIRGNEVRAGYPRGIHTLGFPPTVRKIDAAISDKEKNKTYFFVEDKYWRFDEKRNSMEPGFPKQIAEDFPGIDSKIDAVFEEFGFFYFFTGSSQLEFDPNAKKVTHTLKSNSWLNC
T2 sequence (P14780 107-707 limits assumed): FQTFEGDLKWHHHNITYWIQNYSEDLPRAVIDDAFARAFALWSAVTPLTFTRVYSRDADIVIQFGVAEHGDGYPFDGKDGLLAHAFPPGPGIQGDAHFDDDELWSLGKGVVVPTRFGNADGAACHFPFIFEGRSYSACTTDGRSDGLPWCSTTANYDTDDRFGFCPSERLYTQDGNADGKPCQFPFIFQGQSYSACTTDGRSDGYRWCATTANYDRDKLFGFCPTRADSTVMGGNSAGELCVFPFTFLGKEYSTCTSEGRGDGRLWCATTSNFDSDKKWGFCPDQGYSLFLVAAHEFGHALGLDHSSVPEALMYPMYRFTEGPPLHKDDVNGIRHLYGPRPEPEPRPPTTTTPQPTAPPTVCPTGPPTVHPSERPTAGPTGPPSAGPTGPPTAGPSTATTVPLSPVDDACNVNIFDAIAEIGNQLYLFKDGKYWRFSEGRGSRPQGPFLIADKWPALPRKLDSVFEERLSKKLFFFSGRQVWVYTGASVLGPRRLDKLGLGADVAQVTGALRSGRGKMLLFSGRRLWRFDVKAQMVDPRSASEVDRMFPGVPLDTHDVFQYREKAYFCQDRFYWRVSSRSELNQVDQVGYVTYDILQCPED

| SMILES | IC50 [1] | IC50 [2] | IC50 [3] |
| --- | --- | --- | --- |
| O=C(c1ccc(-c2ccc(Cl)cc2)cc1)C1CCC(Cn2nnc3ccccc3c2=O)C1C(=O)O (stereo not drawn) [Example 1, 2-[(4'-chloro[1,1'-biphenyl]-4-yl)carbonyl]-5-[(4-oxo-1,2,3-benzotriazin-3(4H)-yl)methyl]-cyclopentanecarboxylic acid] | 1.7 nM | 0.34 nM | 0.39 nM |
| CC1=NCC(=O)N(CCC(CC(=O)c2ccc(-c3ccc(Cl)cc3)cc2)C(=O)O)c2ccccc21 (stereo not drawn) [Example 22, α-[2-(4'-chloro[1,1'-biphenyl]-4-yl)-2-oxoethyl]-2,3-dihydro-5-methyl-2-oxo-1H-1,4-benzodiazepine-1-butanoic acid] | 140 nM | 120 nM | 24 nM |
| O=C(CC(CCn1nnc2ccccc2c1=O)C(=O)O)c1ccc(-c2ccc(Cl)cc2)cc1 (stereo not drawn) [Example 19, α-[2-(4'-chloro[1,1'-biphenyl]-4-yl)-2-oxoethyl]-4-oxo-1,2,3,-Benzotriazine-3(4H)-butanoic acid] | 47 nM | 4.7 nM | 2.4 nM |
